Experiments:
blackgrass = test: Test E blackgrass; assay type: in vivo, Alopecurus myosuroides; settings: Postemergence
In short: (§1)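 Visually scored herbicidal effect relative to untreated plants, taken ~21 to 28 days post-application; compound in solvent with surfactant; postemergence sprays at the 1- to 4-leaf stage.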

common poppy = test: Test E common poppy; assay type: in vivo, Papaver rhoeas; settings: Postemergence
In short: as §1

redroot pigweed [1] = test: Test E redroot pigweed; assay type: in vivo, Amaranthus retroflexus; settings: Postemergence
In short: as §1

scentless chamomile = test: Test E scentless chamomile; assay type: in vivo, Matricaria inodora; settings: Postemergence
Method: (§2) Compounds evaluated in this test were formulated in a non-phytotoxic solvent mixture which included a surfactant and applied to plants that were in the 1- to 4-leaf stage (postemergence application). A mixture of sandy loam soil and greenhouse potting mix in a 60:40 ratio was used for the postemergence test.
(§3) Plantings of these crops and weed species were adjusted to produce plants of appropriate size for the postemergence test. All plant species were grown using normal greenhouse practices. Crop and weed species include annual bluegrass (Poa annua), blackgrass (Alopecurus myosuroides), black nightshade (Solanum nigra), chickweed (Stellaria media), common poppy (Papaver rhoeas), deadnettle (Lamium amplexicaule), downy brome (Bromus tectorum), field violet (Viola arvensis), galium (Galium aparine), green foxtail (Setaria viridis), Italian ryegrass (Lolium multiflorum), jointed goatgrass (Aegilops cylindrica), kochia (Kochia scoparia), lambsquarters (Chenopodium album), littleseed canarygrass (Phalaris minor), rape (Brassica napus), redroot pigweed (Amaranthus retroflexus), Russian thistle (Salsola kali), scentless chamomile (Matricaria inodora), spring barley (Hordeum vulgare), sugar beet (Beta vulgaris), sunflower (Helianthus annuus), ivyleaf speedwell (Veronica hederaefolia), spring wheat (Triticum aestivum), winter wheat (Triticum aestivum), wild buckwheat (Polygonum convolvulus), wild mustard (Sinapis arvensis), wild oat (Avena fatua), windgrass (Apera spica-venti) and winter barley (Hordeum vulgare).
(§4) Treated plants and untreated controls were maintained in a greenhouse for approximately 21 to 28 days, after which all treated plants were compared to untreated controls and visually evaluated. […] A dash response (-) means no test result.

spring barley [2] = test: Test E spring barley; assay type: in vivo, Hordeum vulgare; settings: Postemergence
Method: as §2, §3, §4

ivyleaf speedwell = test: Test E postemergence ivyleaf speedwell; assay type: in vivo, Veronica hederaefolia
Method: as §2, §3, §4

wild buckwheat [3] = test: Test E wild buckwheat; assay type: in vivo, Polygonum convolvulus; settings: Postemergence
In short: as §1

annual bluegrass = test: Test E annual bluegrass; assay type: in vivo, Poa annua; settings: Preemergence
deadnettle = test: Test E deadnettle; assay type: in vivo, Lamium amplexicaule; settings: Preemergence
field violet = test: Test E field violet; assay type: in vivo, Viola arvensis; settings: Preemergence
redroot pigweed [4] = test: Test E redroot pigweed; assay type: in vivo, Amaranthus retroflexus; settings: Preemergence
Russian thistle = test: Test E Russian thistle; assay type: in vivo, Salsola kali; settings: Preemergence
spring barley [5] = test: Test E spring barley; assay type: in vivo, Hordeum vulgare; settings: Preemergence
sugar beet = test: Test E sugar beet; assay type: in vivo, Beta vulgaris; settings: Preemergence
spring wheat = test: Test E spring wheat; assay type: in vivo, Triticum aestivum; settings: Preemergence
wild buckwheat [6] = test: Test E wild buckwheat; assay type: in vivo, Polygonum convolvulus; settings: Preemergence
windgrass = test: Test E windgrass; assay type: in vivo, Apera spica-venti; settings: Preemergence
[7] = Rate 250 g/ha, 0 to 100 scale (0 no effect, 100 complete control)
[8] = Rate 500 g/ha, 0 to 100 scale, 0 no effect, 100 complete control
[9] = Rate 125 g/ha, 0 to 100 scale (0 no effect, 100 complete control)
[10] = Rate 500 g/ha, 0 to 100 scale where 0 is no effect and 100 is complete control

For `CC(C)N(C(=O)n1oc(=O)n(C(C)C)c1=O)c1ccc(F)cc1F` [Compound 109], the “Plant response rating, Blackgrass” value (blackgrass; Rate 125 g/ha, 0 to 100 scale) was 30, the “Plant response rating, Blackgrass” value (blackgrass; [7]) was 10 and the “Plant response rating, Blackgrass” value (blackgrass; [8]) was 70. For the same compound, the “Plant response rating, Comnion poppy” value (common poppy; Rate 125 g/ha, 0 to 100 scale) was 30, the “Plant response rating, Common poppy” value (common poppy; [7]) was 10 and the “Plant response rating, Common poppy” value (common poppy; [8]) was 10. For the same compound, the “Plant response rating, Redroot pigweed” value (redroot pigweed [1]; Rate 125 g/ha, 0 to 100 scale) was 20, the “Plant response rating, Redroot pigweed” value (redroot pigweed [1]; [7]) was 15 and the “Plant response rating, Redroot pigweed” value (redroot pigweed [1]; [8]) was 15. For the same compound, the “Plant response rating, Scentless chamo” value (scentless chamomile; Rate 125 g/ha, 0 to 100 scale) was 0, the “Plant response rating, Scentless chamo” value (scentless chamomile; [7]) was 0 and the “Plant response rating, Scentless chamo” value (scentless chamomile; [8]) was 10. For the same compound, the “Plant response rating, Spring Barley” value (spring barley [2]; Rate 125 g/ha, 0 to 100 scale) was 30, the “Plant response rating, Spring Barley” value (spring barley [2]; [7]) was 20 and the “Plant response rating, Spring Barley” value (spring barley [2]; [8]) was 20. For the same compound, the “Plant response rating, Veronica hedera” value (ivyleaf speedwell; Rate 125 g/ha, 0 to 100 scale) was 20, the “Plant response rating, Veronica hedera” value (ivyleaf speedwell; [7]) was 50 and the “Plant response rating, Veronica hedera” value (ivyleaf speedwell; [8]) was 70. For the same compound, the “Plant response rating, Wild buckwheat” value (wild buckwheat [3]; Rate 125 g/ha, 0 to 100 scale) was 10, the “Plant response rating, Wild buckwheat” value (wild buckwheat [3]; [7]) was 20 and the “Plant response rating, Wild buckwheat” value (wild buckwheat [3]; [8]) was 10. For the same compound, the “Plant response rating, Annual bluegras” value (annual bluegrass; [9]) was 40, the “Plant response rating, Annual bluegras” value (annual bluegrass; Rate 250 g/ha, 0 to 100 scale) was 90 and the “Plant response rating, Annual bluegras” value (annual bluegrass; [10]) was 75. For the same compound, the “Plant response rating, Deadnettle” value (deadnettle; [9]) was 20, the “Plant response rating, Deadnettle” value (deadnettle; Rate 250 g/ha, 0 to 100 scale) was 30 and the “Plant response rating, Deadnettle” value (deadnettle; [10]) was 30. The “Plant response rating, Field violet” value (field violet; [9]) was 50, the “Plant response rating, Field violet” value (field violet; Rate 250 g/ha, 0 to 100 scale) was 15 and the “Plant response rating, Field violet” value (field violet; [10]) was 20. The “Plant response rating, Redroot pigweed” value (redroot pigweed [4]; [9]) was 70, the “Plant response rating, Redroot pigweed” value (redroot pigweed [4]; Rate 250 g/ha, 0 to 100 scale) was 100 and the “Plant response rating, Redroot pigweed” value (redroot pigweed [4]; [10]) was 100. For the same compound, the “Plant response rating, Russian thistle” value (Russian thistle; [9]) was 0, the “Plant response rating, Russian thistle” value (Russian thistle; Rate 250 g/ha, 0 to 100 scale) was 0 and the “Plant response rating, Russian thistle” value (Russian thistle; [10]) was 0. For the same compound, the “Plant response rating, Spring Barley” value (spring barley [5]; [9]) was 5, the “Plant response rating, Spring Barley” value (spring barley [5]; Rate 250 g/ha, 0 to 100 scale) was 20 and the “Plant response rating, Spring Barley” value (spring barley [5]; [10]) was 50. For the same compound, the “Plant response rating, Sugar beet” value (sugar beet; [9]) was 0, the “Plant response rating, Sugar beet” value (sugar beet; Rate 250 g/ha, 0 to 100 scale) was 60 and the “Plant response rating, Sugar beet” value (sugar beet; [10]) was 70. For the same compound, the “Plant response rating, Spring Wheat” value (spring wheat; [9]) was 20, the “Plant response rating, Spring Wheat” value (spring wheat; Rate 250 g/ha, 0 to 100 scale) was 40 and the “Plant response rating, Spring Wheat” value (spring wheat; [10]) was 50. The “Plant response rating, Wild buckwheat” value (wild buckwheat [6]; [9]) was 20, the “Plant response rating, Wild buckwheat” value (wild buckwheat [6]; Rate 250 g/ha, 0 to 100 scale) was 85 and the “Plant response rating, Wild buckwheat” value (wild buckwheat [6]; [10]) was 90. For the same compound, the “Plant response rating, Windgrass” value (windgrass; [9]) was 100 and the “Plant response rating, Windgrass” value (windgrass; [10]) was 100.

From patent US6737383B1, “Herbicidal oxadiazolidines” (priority 1999, dated 2004)
